Here are results for two substances from patent US20130195926A1, “MODULATION OF NITRIC OXIDE SIGNALING TO NORMALIZE TUMOR VASCULATURE” (The General Hospital Corporation, priority 2007, published 2013).

Series [1] relates to nNOS. Briefly: Western blot of nNOS knockdown in cultured nNOS shRNA-transfected U87 cells. In kind it is cell-based, human. Here is the method:
U87MG (American Type Culture Collection HTB-14) and GL261 (generous gift from Dr. G. Yancey Gillespie at University of Alabama) tumor cells were cultured in Dulbecco's Modified Eagle's Medium with 10% fetal bovine serum at 37° C. in a humidified 5% CO2 incubator. The following short-hairpin RNAs (shRNAs) for nNOS were designed using a commercial service program for small interfering RNA (siRNA) target finder (http://www.ambion.com/techlib/misc/siRNA_finder.html): nNOS-shRNA58, CAAAGAGATCGACACCATC (sense), […] (antisense); nNOSshRNA97, CACGCATGTCTGGAAAGGC (sense), […](antisense); nNOS-shRNA150, GGTCTATCCAATGTCCACA (sense), […] (antisense). The DNA oligonucleotides consist of a 19-nucleotide sense siRNA sequence linked to its reverse complementary antisense siRNA sequence by a short spacer (TTCAAGAGA).
Each DNA oligonucleotide was prepared with nucleotide overhangs with BamHI and HindIII restriction sites added to the 5′ and 3′ end of the DNA oligonucleotides and subcloned into the pSilencer 3.1 H-1-hygro (Ambion) that allows transcription of the shRNA. These expression vectors were stably transfected into U87MG cells using LipofectAMINE 2000 (Invitrogen) following the manufacturer's instruction.
The stably transfected cells were selected with 80 μg/ml of hygromycin B. The expression of nNOS protein in U87 tumor cells and tissues was determined by'Western blot analysis. […]
Equal amounts of 60 micrograms of protein per sample were separated on 7.5% SDS polyacrylamide gels, transferred onto polyvinylidene fluoride membrane (Millipore), incubated with primary antibodies followed by secondary antibodies (the same antibodies used in immunohistochemistry studies. See Immunohistochemistry methods below), and detected using enhanced chemiluminescence (GE Healthcare) by exposure on autoradiography films (Kodak) (Xu, L., et al. 2005 Cancer Res. 65, 5711-5719; Canneliet, P., et al. 1998 Nature 394, 485-490; Xu, L., et al. 2002 Journal of Biological Chemistry 277, 11368-11374 (2002); and Xu, L., et al. 2004 Clinical Cancer Research 10, 701-707). […]

Series [2] concerns U87 tumors. Briefly: Pimonidazole hypoxia staining and vessel density in U87 tumors grown in the hind leg. In kind it is in vivo, mice. The conditions noted are these: for positive staining for hypoxia (Hypoxyprobe-1 adducts): subcutaneous hind leg tumors ~100 mm3, Rag-1-/- mice; for vessel density: subcutaneous hind leg tumors, compared to U87MG tumors. Here is the method: To evaluate tumor hypoxia, a hypoxia marker pimonidazole was used (Winkler, F., et al. 2004 Cancer Cell 6, 553-563). Briefly, when tumors grown in the hindleg reached about 100 mm^3, 60 mg/kg pimonidazole was injected i.v. into the mice bearing subcutaneous tumors (100 mm^3) 1 hr before perfusion fixation following biotinylated lectin injection. Blood vessels were stained with a Alexa 488-conjugated streptavidin (Vector Laboratory). Pimonidazole-adducts in hypoxic cells were detected using Hypoxyprobe-1 kit (Millipore) stained with tetramethylrhodamine isothiocyanate (TRITC)-conjugated goat antibody to mouse IgG. Cell nuclei were counter-stained by 4,6-diamidino-2-phenylindole (DAPI). Fluorescent images were taken using confocal laser-scanning microscopy, and vessel density and the pimonidazole-positive hypoxic area were determined using NIH image 1.63 macro (Winkler, F., et al. 2004 Cancer Cell 6, 553-563).
The macro identified TRITC-pimonidazole positive area and Alexa 488-positive perfused vessel area and binarized them at the same threshold. The percent of pimonidazole positive area to the total area was determined, and then the number and the perimeters of the binarized vascular areas were quantified on image J software. These parameters were determined in three-five photographic areas from each tumor (630×630 μm^2 each).
The extent of hypoxia was determined in U87MG, U87-shRNA58, and U87-shRNA150 tumors utilizing a redox marker pimonidazole (Hypoxyprobe™-1 Kit, Millipore). To determine the level of hypoxia during a commonly used experimental radiation treatment, tumors were grown to ˜100 mm^3 subcutaneously in the hind leg of Rag-1^−/− mice. […] In nNOS silenced U87-shRNA58 tumors (U87-shRNA58 and U87-shRNA150), most of tumor cells have blood vessels in close proximity, and positive staining for hypoxia was hardly seen (FIG. 9A). In agreement with previous intravital observations in the cranium, increased vessel density was found in U87-shRNA58 and U87-shRNA150 tumors, as compared to U87MG tumors (FIG. 9B-C). Improved vascular morphology and function induced by the selective vascular localization of NO alleviate tumor tissue hypoxia (FIG. 9D). A reduction in hypoxia inducible factor-1α (HIF-1α) protein levels was also observed in the U87-shRNA58 and U87-shRNA150 tumors, as compared to U87MG tumors (FIG. 9E).

The test system of series [3] is U87 tumors. Briefly: Fractionated radiation therapy of U87 tumors grown in the hind leg. The conditions noted are these: 3 daily fractions of 8 Gy, compared to irradiated U87MG tumor bearing animals. Format: in vivo, mice. The method, then: When tumors grown in the hindleg reached about 100 mm^3, animals were randomly assigned to radiation or control group (day 0). In the radiation groups, tumors were locally irradiated with three daily fractions, 8 Gy each, using a ^137Cs gamma irradiator (Hranitzky, E. B., et al. 1973 Radiology 107, 641-644) at a dose rate of approximately 5 Gy/min. The details of irradiation are described elsewhere (Kozin, S. V., et al. 2001 Cancer Research 61, 39-44). Tumor size was measured with a caliper at least every other day. The time taken for tumor to increase in volume 2×, 3×, 4×, 5×, 6×, and 7× of the initial volume (V0) was determined. Tumor growth delay was calculated as the difference of this parameter between irradiated tumors and nonradiated control tumors of the same genotype. Mice were euthanized when the tumors reached 12 mm in diameter. Survival time of individual animals (spontaneous death or by euthanasia at maximum tumor size) was determined after the start of radiation/control treatment.
The effect of radiation treatment on U87MG, U87-shRNA58 and U87-shRNA150 tumors was determined. Tumors were grown subcutaneously in the hind leg of Rag-1^−/− mice. When tumors reached ˜100 mm^3, they were randomly assigned to control and radiation treatment groups. […] Tumor growth and overall animal survival were monitored. […]

In the case of “shRNA58: short-hairpin RNA for nNOS, CAAAGAGATCGACACCATC (sense), GATGGTGTCGATCTCTTTGTT (antisense), in pSilencer 3.1 H-1-hygro, stably transfected into U87MG”, the “Knockdown efficiency of nNOS in vitro” value in series [1] is given as 99%. Further, in series [2], the “positive staining for hypoxia (Hypoxyprobe-1 adducts)” value is given as “hardly seen” and the vessel density result is “increased”. The “animal survival after radiation treatment” value in series [3] is “Significant extension”.

In the case of “shRNA150: short-hairpin RNA for nNOS, GGTCTATCCAATGTCCACA (sense), TGTGGACATTGGATAGACCTT (antisense), in pSilencer 3.1 H-1-hygro”, the “Knockdown efficiency of nNOS in vitro” value in series [1] is on record as 99%. Besides, in series [2], the “positive staining for hypoxia (Hypoxyprobe-1 adducts)” value is listed as “hardly seen” and the vessel density result is given as “increased”. The “animal survival after radiation treatment” value in series [3] was “Significant extension”.
